# Experimental data from PubChem BioAssay AID651549 (Sanford-Burnham Center for Chemical Genomics, 2012).
# Activity calls are given as the source filed them.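 The calls were made as follows: active = compounds blocking the PEG3 reporter with IC50 up to 10 µM at either incubation, yet sparing the GAPDH control reporter; inactive = the rest.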
# Test: GAPDH and PEG-3 promoter luciferase suppression – cell-based, luminescence, set 2, counter-screen for PEG-3 promoter inhibitor project, dose response (AID 651549)
# Details: HeLa PEG-Prom-luciferase or GAPDH-reporter, 6/24 h
SMILES,"IC50 (GAPDH, run 1, 6 h)","IC50 (GAPDH, run 1, 24 h)","IC50 (PEG-3, run 1, 6 h)","IC50 (PEG-3, run 1, 24 h)"
CC(=O)OC1CC[C@]2(C#N)[C@H]3CC[C@]4(C)[C@H](C5C=CC(=O)O5)CCC4(O)C3CCC2(O)C1 (some centres not stated),6.51 µM,inactive,1.6 µM,inactive
Cc1cccc(-n2cc(-c3ccccc3)c3c(N4CCOCC4)ncnc32)c1,> 99 µM (inactive),inactive,> 99 µM (inactive),inactive
CCC(C)(C)c1ccc(Oc2ccc(N)cc2)cc1,5.21 µM,0.566 µM,7.48 µM,7.31 µM
O=C(c1ccco1)N1CCN(C(c2ccccc2Cl)c2nnnn2Cc2cccs2)CC1 (configuration not stated),inactive,inactive,> 99 µM (inactive),inactive
Cc1ccc(C)c(S(=O)(=O)N2CCN(c3ncnc4sccc34)CC2)c1,inactive,2.54 µM,inactive,2.18 µM
O=C(Nc1cccc(-c2ccc(N3CCCCC3)nn2)c1)C(F)(F)F,3.5 µM,inactive,5.36 µM,8.67 µM
CCCn1nc(C(=O)Nc2nc(-c3ccccn3)cs2)c2ccccc2c1=O,inactive,inactive,> 99 µM (inactive),> 99 µM (inactive)
CCCCCCCn1c(=N)n(CC(=O)c2ccco2)c2ccccc21,inactive,inactive,inactive,inactive
O=C(O)c1ccc2nc(-c3ccccc3)sc2c1,6.04 µM,0.72 µM,7.05 µM,7.03 µM
Cc1ccc2nc(NC(=O)CSCC(=O)OCC(=O)c3ccccc3)sc2c1,inactive,5.63 µM,inactive,inactive
Cc1cc2cc(CCNC(=O)C(=O)c3c[nH]c4ccccc34)c(=O)[nH]c2cc1C,inactive,4.9 µM,> 99 µM (inactive),7.83 µM
Nc1ncn([C@@H]2O[C@H](CO)[C@@H](O)[C@H]2O)c(=O)n1,2.73 µM,0.557 µM,inactive,inactive
NC(=O)c1cc([N+](=O)[O-])ccc1NCc1ccc(N)cc1,inactive,inactive,inactive,7.33 µM
